In PubChem BioAssay AID280 (DTP/NCI, 2004):
Values joined by “and” are separate entries in the source; they are usually repeats but may differ in a detail not shown here. Identical values can stand only once. Inconclusive results and toxic doses are left out. The calls were made as follows: active = survival T/C of 150% or more; inactive = T/C below 125% in these data.

System: nude mice, LOX melanoma ip, survival T/C
Test: NCI In Vivo Anticancer Drug Screen. Data for tumor model Human Amelanotic Melanoma (LOX) (intraperitoneal) in NU/NU BALB/C (nude) mice
Conditions: endpoint: median survival time, higher = longer survival
Method: The antitumor activity of compounds was measured in mice bearing transplantable tumors. Survival or tumor size were measured and the results are expressed as the measurement made in the treated group (T) divided by the measurement made in the vehicle treated control group (C). The tumor model used in this assay is Human Amelanotic Melanoma (LOX) (intraperitoneal) in NU/NU BALB/C (nude) mice

[1] = dose: 75.0 mg/kg/injection, schedule: Q04DX003 (ip), vehicle: saline with Tween-80
[2] = dose: 300.0 mg/kg/injection, schedule: Q04DX003 (ip), vehicle: saline with Tween-80
[3] = dose: 75.0 mg/kg/injection, schedule: Q04DX003 (ip), vehicle: saline
[4] = dose: 150.0 mg/kg/injection, schedule: Q04DX003 (ip), vehicle: saline
[5] = dose: 300.0 mg/kg/injection, schedule: Q04DX003 (ip), vehicle: saline

Measured: T/C

CC[C@@H](C)[C@H]([C@H](CC(=O)N1CCC[C@@H]1[C@@H](OC)[C@H](C)C(=O)N[C@H](Cc1ccccc1)c1nccs1)OC)N(C)C(=O)[C@H](NC(=O)[C@@H](C(C)C)N(C)C)C(C)C
inactive: dose: 3.0 micrograms/kg/injection, schedule: Q04DX003 (ip), vehicle: saline + alcohol 109 % of control | dose: 6.0 micrograms/kg/injection, schedule: Q04DX003 (ip), vehicle: saline + alcohol 113 % of control | dose: 9.0 micrograms/kg/injection, schedule: Q04DX003 (ip), vehicle: saline + alcohol 115 % of control
active: dose: 3.25 micrograms/kg/injection, schedule: Q04DX003 (ip), vehicle: saline + alcohol 170 % of control | dose: 6.5 micrograms/kg/injection, schedule: Q04DX003 (ip), vehicle: saline + alcohol 206 % of control | dose: 13.0 micrograms/kg/injection, schedule: Q04DX003 (ip), vehicle: saline + alcohol 301 % of control | dose: 15.0 micrograms/kg/injection, schedule: Q04DX003 (ip), vehicle: saline + alcohol 192 % of control | dose: 26.0 micrograms/kg/injection, schedule: Q04DX003 (ip), vehicle: saline + alcohol 181 % of control and 301 % of control | dose: 43.0 micrograms/kg/injection, schedule: Q04DX003 (ip), vehicle: saline + alcohol 340 % of control

CS(=O)(=O)CS(=O)(=O)OCCF
active: dose: 3.13 mg/kg/injection, schedule: Q04DX003 (ip), vehicle: saline 152 % of control | dose: 6.25 mg/kg/injection, schedule: Q04DX003 (ip), vehicle: saline 295 % of control | dose: 12.5 mg/kg/injection, schedule: Q04DX003 (ip), vehicle: saline 295 % of control | dose: 25.0 mg/kg/injection, schedule: Q04DX003 (ip), vehicle: saline 295 % of control | dose: 50.0 mg/kg/injection, schedule: Q04DX003 (ip), vehicle: saline 295 % of control

S=c1sc2ccccc2n1CN1CCOCC1
inactive: [1] 102 % of control | [2] 90 % of control

Cc1ccc2c(c1)n([O-])c1cc(Cl)ccc1[n+]2=O
inactive: dose: 50.0 mg/kg/injection, schedule: Q04DX003 (ip), vehicle: saline with Tween-80 111 % of control | dose: 100.0 mg/kg/injection, schedule: Q04DX003 (ip), vehicle: saline with Tween-80 123 % of control | dose: 172.0 mg/kg/injection, schedule: Q04DX003 (ip), vehicle: saline with Tween-80 116 % of control | dose: 288.0 mg/kg/injection, schedule: Q04DX003 (ip), vehicle: saline with Tween-80 108 % of control | dose: 400.0 mg/kg/injection, schedule: Q04DX003 (ip), vehicle: saline with Tween-80 111 % of control | dose: 480.0 mg/kg/injection, schedule: Q04DX003 (ip), vehicle: saline with Tween-80 113 % of control | dose: 800.0 mg/kg/injection, schedule: Q04DX003 (ip), vehicle: saline with Tween-80 107 % of control | dose: 1333.0 mg/kg/injection, schedule: Q04DX003 (ip), vehicle: saline with Tween-80 110 % of control

CCS/C(SC)=C(/c1ccccc1)[P+](c1ccccc1)(c1ccccc1)c1ccccc1
inactive: dose: 0.81 mg/kg/injection, schedule: Q04DX003 (ip), vehicle: Klucel (hydroxypropylcellulose) (HPC) 106 % of control | dose: 1.35 mg/kg/injection, schedule: Q04DX003 (ip), vehicle: Klucel (hydroxypropylcellulose) (HPC) 106 % of control | dose: 2.25 mg/kg/injection, schedule: Q04DX003 (ip), vehicle: Klucel (hydroxypropylcellulose) (HPC) 118 % of control | dose: 3.12 mg/kg/injection, schedule: Q04DX003 (ip), vehicle: Klucel (hydroxypropylcellulose) (HPC) 95 % of control | dose: 3.76 mg/kg/injection, schedule: Q04DX003 (ip), vehicle: Klucel (hydroxypropylcellulose) (HPC) 100 % of control | dose: 6.25 mg/kg/injection, schedule: Q04DX003 (ip), vehicle: Klucel (hydroxypropylcellulose) (HPC) 94 % of control

O=C1C(=O)c2cccnc2-c2ncccc21
inactive: dose: 2.5 mg/kg/injection, schedule: Q04DX003 (ip), vehicle: Klucel (hydroxypropylcellulose) (HPC) 94 % of control | dose: 5.0 mg/kg/injection, schedule: Q04DX003 (ip), vehicle: Klucel (hydroxypropylcellulose) (HPC) 101 % of control

N#Cc1c(N)[nH]c2ccc(Sc3ccccc3)cc12
inactive: dose: 15.0 mg/kg/injection, schedule: Q04DX003 (ip), vehicle: saline with Tween-80 99 % of control | dose: 30.0 mg/kg/injection, schedule: Q04DX003 (ip), vehicle: saline with Tween-80 89 % of control | dose: 60.0 mg/kg/injection, schedule: Q04DX003 (ip), vehicle: saline with Tween-80 94 % of control | dose: 120.0 mg/kg/injection, schedule: Q04DX003 (ip), vehicle: saline with Tween-80 104 % of control | dose: 240.0 mg/kg/injection, schedule: Q04DX003 (ip), vehicle: saline with Tween-80 124 % of control

S=C(NCNC(=S)c1ccncc1)c1ccncc1
inactive: [1] 104 % of control | dose: 150.0 mg/kg/injection, schedule: Q04DX003 (ip), vehicle: saline with Tween-80 103 % of control | [2] 106 % of control | dose: 600.0 mg/kg/injection, schedule: Q04DX003 (ip), vehicle: saline with Tween-80 87 % of control

COC(=O)c1ccc(N=NN(C)COC(C)=O)cc1
active: dose: 51.8 mg/kg/injection, schedule: Q04DX003 (ip), vehicle: Klucel (hydroxypropylcellulose) (HPC) 175 % of control | dose: 86.4 mg/kg/injection, schedule: Q04DX003 (ip), vehicle: Klucel (hydroxypropylcellulose) (HPC) 193 % of control | dose: 120.0 mg/kg/injection, schedule: Q04DX003 (ip), vehicle: Klucel (hydroxypropylcellulose) (HPC) 193 % of control | dose: 144.0 mg/kg/injection, schedule: Q04DX003 (ip), vehicle: Klucel (hydroxypropylcellulose) (HPC) 262 % of control | dose: 240.0 mg/kg/injection, schedule: Q04DX003 (ip), vehicle: Klucel (hydroxypropylcellulose) (HPC) 220 % of control and 237 % of control
inactive: dose: 30.0 mg/kg/injection, schedule: Q04DX003 (ip), vehicle: Klucel (hydroxypropylcellulose) (HPC) 118 % of control

NC(=S=O)C(N)=S=O
inactive: dose: 62.5 mg/kg/injection, schedule: Q04DX003 (ip), vehicle: saline with Tween-80 109 % of control | dose: 125.0 mg/kg/injection, schedule: Q04DX003 (ip), vehicle: saline with Tween-80 105 % of control | dose: 250.0 mg/kg/injection, schedule: Q04DX003 (ip), vehicle: saline with Tween-80 105 % of control | dose: 500.0 mg/kg/injection, schedule: Q04DX003 (ip), vehicle: saline with Tween-80 105 % of control

CO[C@@]12[C@H](COC(N)=O)C3=C(C(=O)C(C)=C(N)C3=O)N1C[C@@H]1N[C@@H]12
active: dose: 2.0 mg/kg/injection, schedule: Q04DX003 (iv), vehicle: saline 166 % of control | dose: 3.0 mg/kg/injection, schedule: Q04DX003 (ip), vehicle: saline 272 % of control | dose: 3.0 mg/kg/injection, schedule: Q04DX003 (iv), vehicle: saline 168 % of control | dose: 4.5 mg/kg/injection, schedule: Q04DX003 (iv), vehicle: saline 150 % of control
inactive: dose: 1.34 mg/kg/injection, schedule: Q04DX003 (ip), vehicle: saline 116 % of control | dose: 1.34 mg/kg/injection, schedule: Q04DX003 (iv), vehicle: saline 119 % of control | dose: 2.0 mg/kg/injection, schedule: Q04DX003 (ip), vehicle: saline 111 % of control | dose: 4.5 mg/kg/injection, schedule: Q04DX003 (ip), vehicle: saline 116 % of control

O=CC(O)C(O)C(O)C(O)CO (centres undefined)
inactive: [3] 112 % of control and 99 % of control | [4] 107 % of control and 98 % of control | [5] 102 % of control and 106 % of control | dose: 600.0 mg/kg/injection, schedule: Q04DX003 (ip), vehicle: saline 95 % of control | dose: 1200.0 mg/kg/injection, schedule: Q04DX003 (ip), vehicle: saline 98 % of control and 99 % of control

O=C(NC(Cc1ccc(I)cc1)C(=O)O)c1cccc(Br)c1 (centres undefined)
inactive: dose: 50.0 mg/kg/injection, schedule: Q04DX003 (ip), vehicle: Klucel (hydroxypropylcellulose) (HPC) 112 % of control | dose: 75.0 mg/kg/injection, schedule: Q04DX003 (ip), vehicle: Klucel (hydroxypropylcellulose) (HPC) 105 % of control | dose: 100.0 mg/kg/injection, schedule: Q04DX003 (ip), vehicle: Klucel (hydroxypropylcellulose) (HPC) 112 % of control | dose: 150.0 mg/kg/injection, schedule: Q04DX003 (ip), vehicle: Klucel (hydroxypropylcellulose) (HPC) 89 % of control | dose: 200.0 mg/kg/injection, schedule: Q04DX003 (ip), vehicle: Klucel (hydroxypropylcellulose) (HPC) 103 % of control | dose: 300.0 mg/kg/injection, schedule: Q04DX003 (ip), vehicle: Klucel (hydroxypropylcellulose) (HPC) 96 % of control | dose: 400.0 mg/kg/injection, schedule: Q04DX003 (ip), vehicle: Klucel (hydroxypropylcellulose) (HPC) 87 % of control

COc1ccc2oc(-c3ccc(Cl)cc3)c(N3CCN(C)CC3)c2c1
inactive: [3] 91 % of control | [4] 118 % of control | [5] 90 % of control
